Data published in patent publication US10143666B2, “Small molecule inhibitors targeting CAG-repeat RNA toxicity in polyglutamine diseases” (The Chinese University of Hong Kong, priority 2015, dated 2018).

What was measured:
DsRedCAG100 fly = test: Pseudopupil assay in DsRedCAG100 fly (expanded CAG-repeat RNA toxicity); assay type: in vivo, Drosophila; conditions: 12 day-old adult flies
Excerpt: The synthesis of DB213 was described in Marcheschi et al. (Scheme 1)^12, see FIG. 1. By using a MJD (one kind of polyQ diseases) Drosophila disease model, the inventors established an effective screening platform to test a series of synthesized small molecules for their activity to suppress polyQ-induced neurodegeneration. […] To test whether the compounds acted on CAG-repeat RNA level, another Drosophila model, DsRedCAG100^6, was employed. […] Therefore, DB213 was confirmed to modulate expanded CAG-repeat RNA-mediated toxicity in vivo.
(§1) Flies were raised at 21.5° C. on cornmeal medium supplemented with dry yeast. Pseudopupil assay was performed on 12 day-old adult flies as mentioned previously^18. Images were captured by SPOT Insight CCD camera controlled by the SPOT Advanced software (Diagnostic instruments Inc.). External eye assay was performed on 12 day-old adult flies by Olympus SZX-12 stereomicroscope. Eye images were captured using a SPOT Insight CCD camera (Diagnostic instruments Inc.).

CGG90 fly = test: Neurodegeneration in CGG90 fly (Fragile X syndrome model); assay type: in vivo, Drosophila
Description: Other disease fly models, including α-synuclein (Parkinson's disease)^13, CTG480 (Myotonic dystrophy 1)^14 and CGG90 (Fragile X syndrome)^15 were employed to address the specificity of DB213 on trinucleotide repeat expansion RNA toxicity.
as §1

[1] = system: EGFPCAG78 RNA expressing SK-N-MC cells; test: LDH cytotoxicity assay, EGFPCAG78 RNA expressing SK-N-MC cells; assay type: cell-based, human
Description: (§2) It was next investigated whether DB213 could mitigate expanded CAG-repeat RNA-mediated toxicity in SK-N-MC human neuronal cell. […] Taken together, DB213 could suppress the expanded CAG RNA-mediated but not polyQ protein-mediate toxicity in human neuronal cell.
(§3) SK-N-MC human neuronal cells were seeded on a 24-well plate and lactate dehydrogenase enzyme activity in the cell culture medium was measured 72 hours post-transfection and drugs treatment using the Cytotox 96 non-radioactive cytotoxicity assay (Promega).

trMJDCAG78 cells = test: LDH cytotoxicity assay, trMJDCAG78 cell model; assay type: cell-based, human; conditions: both RNA and polyQ protein toxicities
Description: as §2, §3

trMJDCAA/G78 cells = test: LDH cytotoxicity assay, trMJDCAA/G78 cell model; assay type: cell-based, human; conditions: only trMJDQ78 protein toxicity
Description: as §2, §3

[2] = system: primary rat cortical neurons; test: Cytotoxicity test on primary rat cortical neurons; assay type: cell-based
Excerpt: To address the specificity of DB213 on expanded CAG-repeat RNA toxicity in vitro, another small molecule compound, C4G2, labeled as ligand 3 in the study^17, was employed.

R6/2 Huntington's mice = test: Tolerability / mortality in R6/2 Huntington's mice after i.n. or i.v. dosing; conditions: for Mice lost in total: all dose groups; for Highest tolerated dose: R6/2 mice
Description: The objective of this study was to investigate the tolerability of i.n. or i.v. administrated Compound-5 (DB213) treatment on 1) neurological index (NI) scores, 2) body weight, 3) body temperature and 4) activity in open field test in R6/2 Huntington's mice.
i.n.: Group 1: 3 female and 3 male R6/2 mice treated with i.n. vehicle starting at 6 weeks of age and continuing for 7 days; Group 2: 3 female and 3 male R6/2 mice treated i.n. daily with Compound-5 at 50 mg/kg starting at 6 weeks of age and continuing for 7 days; Group 3: 3 female and 3 male R6/2 mice treated i.n. daily with Compound-5 at 100 mg/kg starting at 6 weeks of age and continuing for 7 days; Group 4: 3 female and 3 male R6/2 mice treated i.n. daily with Compound-5 at 200 mg/kg starting at 6 weeks of age and continuing for 7 days; Group 5: 3 female and 3 male R6/2 mice treated i.n. daily with Compound-5 at 300 mg/kg starting at 6 weeks of age and continuing for 7 days.
Compound-5 or vehicle was administered i.n. daily or i.v. twice-a-week starting at 6 weeks of age for 7 days.
i.v. administration: mice received 2 weekly i.v. injections into the tail vein. Mice were weighed on each treatment day and the dose adjusted accordingly to 1 ml/kg dose volume. For example, a mouse with a 30 g body weight received an i.v. injection of 30 μl. The whole i.v. injection process took 5-8 min per mouse.
i.n. administration: using a three fingered scruff, each mouse was restrained twice and held with neck parallel to the table while the compound was administered. The volume was 0.56 ml/kg. For example, a mouse with a 30 g body weight received in total 16.8 μl. During each restraint, 8.4 μl was administered to the left nostril as two 4.2 μl drops, followed by a 15 sec hold, and 8.4 μl was administered to the right nostril as two 4.2 μl drops, followed by a 15 sec hold. Notes were taken on the success of delivery and any lost volume greater than 2 μl were re-administered.
Animals were monitored twice-a-day by laboratory personnel (8 am and […]). […] Definitions of acceptable endpoints included: no spontaneous movements and inability to drink or eat in 24-h observation period, massive bleeding, spontaneous inflammation, missing anatomy, swelling or tumors larger than 20 mm, and inability to right itself in 30 sec period.

[3] = i.v. 200 mg/kg group (so in the source)
[4] = i.v. 300 mg/kg group (so in the source)

CN(C)CCCNC(=N)c1ccc(C(=N)NCCCN(C)C)cc1.Cl.Cl.Cl.Cl [DB213]
Suppression of DsRedCAG100 RNA-mediated toxicity (neurodegeneration) (DsRedCAG100 fly): suppressed the DsRedCAG100 RNA-mediated toxicity in a dose-dependent manner
Suppression of neurodegeneration (CGG90 fly): did not suppress the neurodegeneration
Cell death induced by EGFPCAG78 RNA (LDH assay) ([1]; 72 hours post-transfection and treatment): could be suppressed
IC50 ([1]; read-out: IC50, inhibition of cell death induced by EGFPCAG78 RNA (LDH enzyme activity reduced by 50%)): 6.9 ± 1.8 nM
Cell death (LDH assay) (trMJDCAG78 cells): only partially inhibited the abnormal cell death
Cell death level (LDH assay) (trMJDCAA/G78 cells): did not alter the cell death level
No observed cytotoxicity up to ([2]; cellular toxicity): up to 12.8 μM
Concentration up to which viability of wild-type primary neurons was not compromised ([2]; primary rat cortical neurons): up to 12,800 nM
Mortality (R6/2 Huntington's mice; both intranasal and intravenous treatment): increase mortality in dose-dependent manner
Mice lost (R6/2 Huntington's mice; i.n. daily 50 mg/kg, 7 days): 1 mouse
Mice lost, share of group (R6/2 Huntington's mice; i.n. daily 50 mg/kg, 7 days): 16.7%
Mice lost (R6/2 Huntington's mice; i.n. daily 100 mg/kg, 7 days): 2 mice
Mice lost, share of group (R6/2 Huntington's mice; i.n. daily 100 mg/kg, 7 days): 33.3%
Mice lost (R6/2 Huntington's mice; i.n. daily 200 mg/kg, 7 days): 4 mice
Mice lost, share of group (R6/2 Huntington's mice; i.n. daily 200 mg/kg, 7 days): 66.7%
Mice lost (R6/2 Huntington's mice; i.n. daily 300 mg/kg, 7 days): 3 mice
Mice lost, share of group (R6/2 Huntington's mice; i.n. daily 300 mg/kg, 7 days): 50%
Mice lost in total (R6/2 Huntington's mice; i.n. daily, 7 days): 10 mice
Mice lost (R6/2 Huntington's mice; [3]): 2 mice
Mice lost, share of group (R6/2 Huntington's mice; [3]): 100%
Mice lost (R6/2 Huntington's mice; [4]): 2 mice
Mice lost, share of group (R6/2 Huntington's mice; [4]): 100%
Mice lost (R6/2 Huntington's mice; i.v. twice-a-week 25 mg/kg): 1 mouse
Mice lost, share of group (R6/2 Huntington's mice; i.v. twice-a-week 25 mg/kg): 12.5%
Mice lost (R6/2 Huntington's mice; i.v. twice-a-week 50 mg/kg): 3 mice
Mice lost, share of group (R6/2 Huntington's mice; i.v. twice-a-week 50 mg/kg): 75%
Mice lost in total (R6/2 Huntington's mice; i.v. twice-a-week): 8 mice
Highest tolerated dose (R6/2 Huntington's mice; intranasally): 50 to 100 mg/kg
Highest tolerated dose (R6/2 Huntington's mice; intravenously): 12.5 to 25 mg/kg
